Laboratory results published in paper PMC3266904, “Biochemical Discrimination between Selenium and Sulfur 2: Mechanistic Investigation of the Selenium Specificity of Human Selenocysteine Lyase” (PLoS ONE, 2012).

Target: T1, human selenocysteine lyase (hSCL) (Homo sapiens, UniProt Q96I15)
T1 construct: gene SCLY
T1 sequence (Q96I15 8-445): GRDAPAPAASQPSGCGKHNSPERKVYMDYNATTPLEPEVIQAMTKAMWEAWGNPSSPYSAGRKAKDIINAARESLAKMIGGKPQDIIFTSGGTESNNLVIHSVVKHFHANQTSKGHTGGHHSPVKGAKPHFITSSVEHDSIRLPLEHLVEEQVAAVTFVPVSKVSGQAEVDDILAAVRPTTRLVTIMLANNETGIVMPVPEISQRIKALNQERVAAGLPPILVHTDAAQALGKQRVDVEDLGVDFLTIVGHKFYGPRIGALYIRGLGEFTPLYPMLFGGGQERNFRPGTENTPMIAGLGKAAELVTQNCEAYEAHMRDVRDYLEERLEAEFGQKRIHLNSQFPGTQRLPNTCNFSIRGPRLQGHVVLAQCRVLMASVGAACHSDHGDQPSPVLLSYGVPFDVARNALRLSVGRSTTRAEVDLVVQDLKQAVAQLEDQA
Test: UV/Vis spectrum of as-isolated protein
Type: binding
Conditions: 120 mM Tris pH 8.5, 2 mM TCEP; covalent internal aldimine

Cc1ncc(COP(=O)(O)O)c(C=O)c1O [PLP]
UV/Vis spectrum of as-isolated protein: the Shiff base linking the PLP cofactor to the protein exists mainly in the protonated
